Experimental data: PMC3610371, “Subamolide B Isolated from Medicinal Plant Cinnamomum subavenium Induces Cytotoxicity in Human Cutaneous Squamous Cell Carcinoma Cells through Mitochondrial and CHOP-Dependent Cell Death Pathways” (Evidence-based Complementary and Alternative Medicine : eCAM, 2013)
Where “and” joins values, the source holds several entries; their conditions need not be identical. Identical values can stand only once.

Assays:
[1] = system: SCC12 cells; experiment: SCC12 cell viability after 24 h treatment (Supplementary Figure 3); format: cell-based; conditions: Homo sapiens
Procedure: The effect of subamolide B on cell viability was mostly evaluated using CellTiter 96 AQueous Non-Radioactive Cell Proliferation Assay (MTS assay) kit (Promega, Madison, WI, USA) as previously described. Alternatively, propidium iodide (PI) exclusion assay was employed to determine cell viability. In brief, 4 × 10^5 SCC12 cells were seeded onto 6-well dishes and were subjected to 48 h treatment with subamolide B. Cells were then trypsinized, collected by centrifugation, and washed twice with PBS. Subsequently, cells were stained with 10 μg/ml of PI in PBS for 15 min in the dark, followed by flow cytometry analysis to determine the levels of PI incorporation.
Supplementary Figure Legends (Yang et al.) […]
Supplementary Figure 3. SCC12 cells were resistant to imiquimod-induced cytotoxicity.
SCC12 cells were treated with increasing doses of subamolide B (0~20 µM) (A) or
imiquimod (0~50 µg/ml) (B) for 24 h, and the viability of imiquimod-treated cells was
evaluated thereafter. It is noted that 20 µM (6.897 µg/ml) of subamolide B reduced the
viability of SCC12 cells to 50.47±5.89% compared to the drug-untreated control, whereas
65.00±4.32% of SCC12 cells were still viable after treatment with 50 µg/ml of imiquimod.

[2] = system: ATF6 transcriptional activity; experiment: ATF6 transcriptional activity luciferase reporter assay (p5xATF6-GL3); format: cell-based; conditions: Homo sapiens, SCC12 cells, 24 h, vs drug-untreated control
Excerpt: The ATF6 activity reporter plasmid p5xATF6-GL3 (Addgene plasmid 11976) carries five ATF6 response elements in tandem to drive the expression of firefly luciferase. The human CHOP promoter, which encompasses the region between −947 and +30 (+1 is the transcriptional start site) was PCR-amplified from the genomic DNA of peripheral blood mononuclear cells using the primer pair 5′-[…]-3′ (forward) and 5′-[…]-3′ (reverse). The 978-bp fragment was cloned into the luciferase reporter plasmid pGL4.18 vector (Promega, Madison, WI, USA) to generate the human CHOP promoter reporter plasmid (pCHOP-Luc). Luciferase activity assay was performed using Dual-Luciferase Reporter assay kit (Promega, Madison, WI, USA) as reported previously. Luciferase activity was normalized to Renilla luciferase activity, and final results were expressed as fold induction of the luciferase activity after subamolide B stimulation compared to that of drug-untreated control.
Figure 5 Subamolide B is an ER stress inducer. (a) Subamolide B upregulates signature ER stress markers GRP78 and CHOP. […] The level of CHOP mRNA in SCC12 cells after 24 h treatment with subamolide B (0~20 μM) was assessed by semiquantitative RT-PCR analysis. β-actin was used as the loading control. […] ATF6 transcriptional activity was then evaluated by luciferase activity assay. […]

[3] = system: SCC12 cells; experiment: Annexin-V/propidium iodide dual staining assay (flow cytometry); format: cell-based, human; conditions: subamolide B 20 μM, 24 h
Procedure: Annexin V/PI dual staining assay was employed to determine the involvement of apoptosis in subamolide B-induced cell death, using ApoTarget Annexin-V-FITC Apoptosis kit (Biosource, Camarillo, CA, USA) as described previously. If required, the pan-caspase inhibitor z-VAD-fmk (20 μM) was added to SCC12 cells 2 h before subamolide B treatment.
Figure 2 Apoptosis is partly responsible for subamolide B-induced SCC12 cell death. ((a), (b)) Subamolide B induces dose- and time-dependent proteolytic processing/activation of caspases-8, -9, -4, and -3. […] Subamolide B (20 μM) was used to treat SCC12 cells for 24 h without or with cotreatment of the pan-caspase inhibitor z-VAD-fmk (20 μM). […] The levels of apoptotic cells were indicated as the percentage of all cell populations as shown in (d). ***P < 0.001. […]

[4] = system: A-431 (epidermoid carcinoma) cells; experiment: Cell viability determination via MTS assay, A-431; format: cell-based; conditions: Homo sapiens; A-431, 48 h treatment; read-out: IC50 (reduce cell viability by 50%)
Procedure: (§1) The human cutaneous squamous cell carcinoma cell line SCC12 (kindly provided by Prof. Xiaoqi Wang, Northwestern University, USA) was grown in DMEM/F-12 (1 : 1) medium. The human malignant melanoma cell line A375 (ATCC number: CRL-1619), human epidermoid carcinoma cell line A-431 (ATCC number: CRL-1555), and HEK293T cells (ATCC number: CRL-11268) were grown in DMEM medium, whereas the human basal cell carcinoma cell line BCC-1/KMC [25] was cultured in RPMI1640 medium. […]
(§2) The effect of subamolide B on cell viability was mostly evaluated using CellTiter 96 AQueous Non-Radioactive Cell Proliferation Assay (MTS assay) kit (Promega, Madison, WI, USA) as previously described. […]
(§3) Figure 1 Cytotoxic effect of subamolide B on human skin cancer cell lines. […] 14 days later, the extent of subamolide B-mediated repression of SCC12 colony formation was evaluated by the numbers of colonies grown on culture dishes. […] (c) Quantitative analysis of subamolide B-mediated repression of SCC12 colony formation. The numbers of colonies shown in (b) were counted and the results were presented as the percentage of drug-treated groups compared to the drug-free controls. ***P < 0.001.

[5] = system: A375 (melanoma) cells; experiment: Cell viability determination via MTS assay, A375; format: cell-based; conditions: Homo sapiens, A-375; A375, 48 h treatment; read-out: IC50 (reduce cell viability by 50%)
Procedure: as §1, §2, §3

[6] = system: WI-38 normal lung fibroblasts; experiment: Cell viability determination via MTS assay, WI-38; format: cell-based; conditions: Homo sapiens; WI-38, 48 h treatment; read-out: IC50 (reduce cell viability by 50%)
Procedure: as §1, §2, §3

[7] = system: IMR-90 normal lung fibroblasts; experiment: Cell viability determination via MTS assay, IMR-90; format: cell-based; conditions: Homo sapiens; IMR-90, 48 h treatment; read-out: IC50 (reduce cell viability by 50%)
Procedure: as §1, §2, §3

[8] = system: MRC-5 normal lung fibroblasts; experiment: Cell viability determination via MTS assay, MRC-5; format: cell-based; conditions: Homo sapiens, MRC5; MRC-5, 48 h treatment; read-out: IC50 (reduce cell viability by 50%)
Procedure: as §1, §2, §3

[9] = system: SCC12 cells; experiment: Colony formation assay; format: cell-based, human; conditions: 24 h treatment, then drug-free media 14 days
Procedure: The effect of subamolide B on the long-term survival of SCC12 cells was assessed using colony formation assay in accordance with the reported procedure. […] […] The colonies composed of 50 or more cells were counted under microscopy. At least three independent assays were performed to calculate the numbers of colonies for statistical analysis.
Figure 1 Cytotoxic effect of subamolide B on human skin cancer cell lines. (a) Dose-dependent cytotoxicity of subamolide B. Human skin cancer cell lines, including A375 (melanoma), A-431 (epidermoid carcinoma), BCC-1/KMC (basal cell carcinoma) and SCC12 (cutaneous squamous cell carcinoma), normal human skin fibroblast cell lines CCD-966SK and WS1, and normal human lung fibroblast cell lines IMR-90, MRC-5, and WI-38 were treated with graded doses of subamolide B (0~20 μM), followed by cell viability determination via MTS assay as described in Section 2. […] 14 days later, the extent of subamolide B-mediated repression of SCC12 colony formation was evaluated by the numbers of colonies grown on culture dishes. […] (c) Quantitative analysis of subamolide B-mediated repression of SCC12 colony formation. The numbers of colonies shown in (b) were counted and the results were presented as the percentage of drug-treated groups compared to the drug-free controls. ***P < 0.001.

[10] = system: CCD-966SK normal skin fibroblasts; experiment: Cell viability determination via MTS assay, CCD-966SK; format: cell-based; conditions: Homo sapiens, Skin fibroblast, 48 h treatment, read-out: IC50 (reduce cell viability by 50%)
Procedure: as §1, §2, §3

[11] = system: WS1 normal skin fibroblasts; experiment: Cell viability determination via MTS assay, WS1; format: cell-based; conditions: Homo sapiens, Skin fibroblast; WS1, 48 h treatment; read-out: IC50 (reduce cell viability by 50%)
Procedure: as §1, §2, §3

[12] = system: SCC12 (cutaneous squamous cell carcinoma) cells; experiment: Cell viability determination via MTS assay, SCC12; format: cell-based; conditions: Homo sapiens; SCC12, 48 h treatment; read-out: IC50 (reduce cell viability by 50%)
Procedure: as §1, §2, §3

[13] = system: BCC-1/KMC (basal cell carcinoma) cells; experiment: Cell viability determination via MTS assay, BCC-1/KMC; format: cell-based; conditions: Homo sapiens, BCC1, 48 h treatment, read-out: IC50 (reduce cell viability by 50%)
Procedure: as §1, §2, §3

Structure (SMILES)	viability at 50 µg/mL ([1]; SCC12, imiquimod 50 μg/ml, 24 h, read-out: SCC12 cell viability, % of the drug-untreated control)	fold induction at 10 µM [2]	level of apoptotic cells (percentage of all cell populations) ([3]; cotreated with z-VAD-fmk 20 μM)	level of apoptotic cells (percentage of all cell populations) ([3]; without z-VAD-fmk)	IC50 [4]	IC50 [5]	IC50 [6]	IC50 [7]	IC50 [8]	SCC12 colony formation, % of the drug-untreated control ([9]; 10 μM)	SCC12 colony formation, % of the drug-untreated control ([9]; 20 μM)	IC50 [10]	IC50 [11]	IC50 [12]	viability at 20 µM ([1]; SCC12, subamolide B 20 μM (6.897 μg/ml), 24 h, read-out: SCC12 cell viability, % of the drug-untreated control)	IC50 ([1]; SCC12, 24 h treatment, read-out: IC50 (SCC12 cytotoxicity))	IC50 [13]
CC(C)Cn1cnc2c(N)nc3ccccc3c21 [imiquimod, reference compound]	65 ± 4.32%	–	–	–	–	–	–	–	–	–	–	–	–	–	–	–	–
CCCCCCCCCCCCC/C=C1/C(=O)O[C@@](C)(OC)[C@@H]1O [subamolide B, (3E,4R,5R)-3-tetradecylidene-4-hydroxy-5-methoxy-5-methyl-butanolide]	–	16.1 ± 2.06	18.6 ± 0.42%	32.55 ± 3.65%	13.3 µM	17.6 µM	> 20 µM	> 20 µM	> 20 µM	58.93 ± 2.40%	28.20 ± 10.87%	> 20 µM	> 20 µM	9.12 µM	50.5 ± 5.89%	6.9 µg/mL and 20.3 µM	> 20 µM
